Reference: ChEMBL document CHEMBL5352470, “RS6077 induces mitotic arrest and selectively activates cell death in human cancer cell lines and in a lymphoma tumor in vivo” (Eur J Med Chem, 2023)

How the values were obtained:
[1] = test system: TERT-RPE1; experiment: Antiproliferative activity against human TERT-RPE1 cells assessed as inhibition of cell growth measured for 48 hrs by MTT assay; assay type: functional, cell-based; settings: RPE-1, 48 h
[2] = biological target: Tubulin; experiment: Inhibition of tubulin polymerization (unknown origin) incubated for 20 mins in presence of GTP by spectrophotometric analysis; assay type: protein-complex assay, Homo sapiens
[3] = test system: AHH-1; experiment: Induction of apoptosis in human AHH-1 cells at 1000 to 2500 nM measured after 72 hrs by annexin V-FITC and PI staining based flow cytometry analysis; assay type: functional; settings: dose 1000-2500 nM
[4] = test system: TERT-RPE1; experiment: Induction of cell cycle arrest in human TERT-RPE1 cells assessed as accumulation of cells at G2/M phase at 1000 nM incubated for 72 hrs by annexin V-FITC and PI staining based flow cytometry analysis; assay type: functional
[5] = test system: HeLa; experiment: Induction of cell cycle arrest in human HeLa cells assessed as accumulation of cells at S phase at 1000 nM incubated for 72 hrs by annexin V-FITC and PI staining based flow cytometry analysis; assay type: functional
[6] = test system: TERT-RPE1; experiment: Induction of cell cycle arrest in human TERT-RPE1 cells assessed as accumulation of cells at G2/M phase at 2500 nM incubated for 72 hrs by annexin V-FITC and PI staining based flow cytometry analysis; assay type: functional
[7] = Toxicity in human T cells derived from human PBMC assessed as early apoptotic cells at 1 uM measured for 48 hrs by annexin V-FITC and PI staining based flow cytometry analysis (reference value: 6.75 to 8.22 %); settings: t-cell
[8] = test system: HeLa; experiment: Antiproliferative activity against human HeLa cells assessed as inhibition of cell growth measured for 48 hrs by MTT assay; assay type: functional, cell-based
[9] = test system: AHH-1; experiment: Induction of cell cycle arrest in human AHH-1 cells assessed as accumulation of cells at S phase at 1000 nM incubated for 72 hrs by annexin V-FITC and PI staining based flow cytometry analysis; assay type: functional
[10] = test system: HeLa; experiment: Induction of cell cycle arrest in human HeLa cells assessed as accumulation of cells at G2/M phase at 100 nM incubated for 72 hrs by annexin V-FITC and PI staining based flow cytometry analysis; assay type: functional
[11] = test system: HeLa; experiment: Induction of cell cycle arrest in human HeLa cells assessed as accumulation of cells at S phase at 2500 nM incubated for 72 hrs by annexin V-FITC and PI staining based flow cytometry analysis; assay type: functional
[12] = test system: AHH-1; experiment: Induction of cell cycle arrest in human AHH-1 cells assessed as accumulation of cells at S phase at 100 nM incubated for 72 hrs by annexin V-FITC and PI staining based flow cytometry analysis; assay type: functional
[13] = test system: HeLa; experiment: Induction of apoptosis in human HeLa cells assessed as viable cells measured after 72 hrs by annexin V-FITC and PI staining based flow cytometry analysis; assay type: functional, cell-based; settings: dose 100-2500 nM
[14] = test system: TERT-RPE1; experiment: Induction of cell cycle arrest in human TERT-RPE1 cells assessed as accumulation of cells at S phase at 100 nM incubated for 72 hrs by annexin V-FITC and PI staining based flow cytometry analysis; assay type: functional

For COc1cc(C(=O)c2ccn(-c3ncnc4[nH]ccc34)c2)cc(OC)c1OC, the IC50 [1] was 101 nM, the IC50 [2] was 280 nM and the Activity [3] was 80%. For the same molecule, the Activity [4] was 82.7%, the Activity [5] was 44.1% and the Activity [6] was 72.7%. The Activity [7] was 6.49%, the IC50 [8] was 35.8 nM and the Activity [9] was 18.4%. For the same molecule, the Activity [10] was 28.3%, the Activity [11] was 48.7% and the Activity [12] was 27.2%. For the same molecule, the Activity [13] was “Dose-Dependent Effect” and the Activity [14] was 2.3%.
